Patent US10370622B2, “Soap bar having enhanced antibacterial activity” (Conopco, Inc., priority 2013, dated 2019)

Columns and labels:
[1] = in water at 25° C.; cited from earlier work
[2] = Silver ion solubility derived from solubility product (Ksp) in water at 25° C.; conditions: calculated as (Ksp·x)^(1/(x+1))

SMILES | Ksp [1] | Silver Ion Solubility [Ag+] [2]
O=C([O-])c1ccccc1.[Ag+] [Silver benzoate] | 2.5e-05 mol/L | 
O=C([O-])CC(O)(CC(=O)[O-])C(=O)[O-].[Ag+].[Ag+].[Ag+] [Silver citrate] | 2.5e-18 mol/L | 
[Br][Ag] [Silver bromide] | 5.3e-13 mol/L | 
O=S(=O)([O-])[O-].[Ag+].[Ag+] [Silver sulfate] | 1.4e-05 mol/L | 
[Cl][Ag] [Silver chloride] | 1.8e-10 mol/L | 13 µM
